Data from US12606544B2, “JAK1 selective kinase inhibitor” (DIZAL (JIANGSU) PHARMACEUTICAL CO., LTD., priority 2019, dated 2026).

Assays:
[1] = molecular target: T1, JAK1 (Homo sapiens, UniProt P23458); assay: Lance Ultra Kinase Assay, recombinant JAK1; type: biochemical; conditions: 5 mM ATP
T1 construct: purchased Carna Biosciences
Protocol: (§1) Recombinant JAK1, JAK2, JAK3 and TYK2 purchased from Carna Biosciences. The inhibition potency of compounds against JAK1, JAK2, JAK3 and TYK2 was assessed using Lance Ultra Kinase Assay.
(§2) In brief, recombinant kinases were pre-incubated in the presence or absence of compound at room temperature for 15 minutes. The reaction was initiated by the addition of 5 mM ATP and substrate peptide which could be phosphorylated by kinases in the reaction. After 60 minutes incubation, the reaction was stopped by the addition of the detection reagent mix containing EDTA. The fluorescence was measured at 615 nm and 665 nm, respectively with excitation wavelength at 320 nm. The calculated signal ratio of 665 nm/615 nm is proportional to the kinase activity.

[2] = molecular target: T2, JAK2 (Homo sapiens, UniProt O60674); assay: Lance Ultra Kinase Assay, recombinant JAK2; type: biochemical; conditions: 5 mM ATP
T2 construct: purchased Carna Biosciences
T2 sequence (O60674 whole entry): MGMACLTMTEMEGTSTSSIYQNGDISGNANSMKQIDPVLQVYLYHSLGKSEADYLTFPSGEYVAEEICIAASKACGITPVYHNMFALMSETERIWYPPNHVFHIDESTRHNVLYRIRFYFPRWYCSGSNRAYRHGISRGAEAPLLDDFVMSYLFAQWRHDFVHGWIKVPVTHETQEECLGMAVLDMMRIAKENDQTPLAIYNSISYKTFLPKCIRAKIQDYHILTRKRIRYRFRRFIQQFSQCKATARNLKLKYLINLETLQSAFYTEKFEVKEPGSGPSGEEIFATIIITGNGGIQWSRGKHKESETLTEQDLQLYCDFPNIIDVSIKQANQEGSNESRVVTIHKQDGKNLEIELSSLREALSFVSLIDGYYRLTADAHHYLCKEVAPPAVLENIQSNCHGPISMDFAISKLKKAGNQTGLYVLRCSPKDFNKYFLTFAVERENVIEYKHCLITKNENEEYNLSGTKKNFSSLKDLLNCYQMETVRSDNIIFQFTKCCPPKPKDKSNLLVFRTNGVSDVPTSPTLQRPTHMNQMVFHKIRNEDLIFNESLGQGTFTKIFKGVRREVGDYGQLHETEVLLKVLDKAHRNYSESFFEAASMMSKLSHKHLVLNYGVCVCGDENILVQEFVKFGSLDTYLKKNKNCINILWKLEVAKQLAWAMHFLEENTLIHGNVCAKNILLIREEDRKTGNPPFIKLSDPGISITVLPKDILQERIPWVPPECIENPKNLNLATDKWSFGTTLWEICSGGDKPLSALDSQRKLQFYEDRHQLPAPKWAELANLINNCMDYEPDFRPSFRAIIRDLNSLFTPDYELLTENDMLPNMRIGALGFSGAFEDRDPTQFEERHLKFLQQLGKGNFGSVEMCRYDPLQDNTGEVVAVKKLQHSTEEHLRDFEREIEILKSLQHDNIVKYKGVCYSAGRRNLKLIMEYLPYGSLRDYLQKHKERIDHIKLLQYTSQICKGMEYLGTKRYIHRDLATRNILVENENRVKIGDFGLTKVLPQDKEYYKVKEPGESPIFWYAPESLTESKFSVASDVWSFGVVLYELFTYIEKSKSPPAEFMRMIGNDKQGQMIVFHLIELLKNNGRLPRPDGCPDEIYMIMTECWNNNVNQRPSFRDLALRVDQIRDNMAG
Protocol: as §1, §2

[3] = molecular target: T3, JAK3 (Homo sapiens, UniProt P52333); assay: Lance Ultra Kinase Assay, recombinant JAK3; type: biochemical; conditions: 5 mM ATP
T3 construct: purchased Carna Biosciences
T3 sequence (P52333 1-1124): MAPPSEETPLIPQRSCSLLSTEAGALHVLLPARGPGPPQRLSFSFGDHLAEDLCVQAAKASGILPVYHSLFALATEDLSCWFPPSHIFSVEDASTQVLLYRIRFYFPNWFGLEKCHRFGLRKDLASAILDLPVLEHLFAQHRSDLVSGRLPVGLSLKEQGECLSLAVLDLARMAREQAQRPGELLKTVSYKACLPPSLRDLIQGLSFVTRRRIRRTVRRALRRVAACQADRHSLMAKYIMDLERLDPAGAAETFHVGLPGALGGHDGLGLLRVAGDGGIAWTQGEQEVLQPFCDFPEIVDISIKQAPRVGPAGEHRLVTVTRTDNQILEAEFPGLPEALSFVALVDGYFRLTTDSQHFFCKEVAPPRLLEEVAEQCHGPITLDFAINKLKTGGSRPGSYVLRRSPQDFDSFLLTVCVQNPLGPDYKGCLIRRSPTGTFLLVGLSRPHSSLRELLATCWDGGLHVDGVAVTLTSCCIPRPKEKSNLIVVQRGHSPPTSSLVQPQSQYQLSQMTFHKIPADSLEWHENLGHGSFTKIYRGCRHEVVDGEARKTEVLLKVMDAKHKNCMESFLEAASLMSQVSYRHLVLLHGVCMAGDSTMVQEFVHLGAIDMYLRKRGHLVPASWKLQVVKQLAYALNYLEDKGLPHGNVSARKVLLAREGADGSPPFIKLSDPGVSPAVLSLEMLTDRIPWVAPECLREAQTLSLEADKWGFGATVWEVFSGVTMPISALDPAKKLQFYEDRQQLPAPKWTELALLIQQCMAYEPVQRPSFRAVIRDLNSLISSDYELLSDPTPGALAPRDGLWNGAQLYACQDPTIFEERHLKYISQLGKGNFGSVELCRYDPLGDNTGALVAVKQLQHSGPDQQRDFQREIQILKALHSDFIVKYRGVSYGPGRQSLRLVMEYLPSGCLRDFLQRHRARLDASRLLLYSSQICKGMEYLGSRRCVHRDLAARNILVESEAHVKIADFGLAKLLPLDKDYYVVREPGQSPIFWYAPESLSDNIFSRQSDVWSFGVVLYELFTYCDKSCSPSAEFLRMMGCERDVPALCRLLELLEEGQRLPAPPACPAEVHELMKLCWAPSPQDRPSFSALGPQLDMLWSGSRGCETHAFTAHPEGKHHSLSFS
Protocol: as §1, §2

[4] = molecular target: T4, TYK2 (Homo sapiens, UniProt P29597); assay: Lance Ultra Kinase Assay, recombinant TYK2; type: biochemical; conditions: 5 mM ATP
T4 construct: purchased Carna Biosciences
T4 sequence (P29597 whole entry): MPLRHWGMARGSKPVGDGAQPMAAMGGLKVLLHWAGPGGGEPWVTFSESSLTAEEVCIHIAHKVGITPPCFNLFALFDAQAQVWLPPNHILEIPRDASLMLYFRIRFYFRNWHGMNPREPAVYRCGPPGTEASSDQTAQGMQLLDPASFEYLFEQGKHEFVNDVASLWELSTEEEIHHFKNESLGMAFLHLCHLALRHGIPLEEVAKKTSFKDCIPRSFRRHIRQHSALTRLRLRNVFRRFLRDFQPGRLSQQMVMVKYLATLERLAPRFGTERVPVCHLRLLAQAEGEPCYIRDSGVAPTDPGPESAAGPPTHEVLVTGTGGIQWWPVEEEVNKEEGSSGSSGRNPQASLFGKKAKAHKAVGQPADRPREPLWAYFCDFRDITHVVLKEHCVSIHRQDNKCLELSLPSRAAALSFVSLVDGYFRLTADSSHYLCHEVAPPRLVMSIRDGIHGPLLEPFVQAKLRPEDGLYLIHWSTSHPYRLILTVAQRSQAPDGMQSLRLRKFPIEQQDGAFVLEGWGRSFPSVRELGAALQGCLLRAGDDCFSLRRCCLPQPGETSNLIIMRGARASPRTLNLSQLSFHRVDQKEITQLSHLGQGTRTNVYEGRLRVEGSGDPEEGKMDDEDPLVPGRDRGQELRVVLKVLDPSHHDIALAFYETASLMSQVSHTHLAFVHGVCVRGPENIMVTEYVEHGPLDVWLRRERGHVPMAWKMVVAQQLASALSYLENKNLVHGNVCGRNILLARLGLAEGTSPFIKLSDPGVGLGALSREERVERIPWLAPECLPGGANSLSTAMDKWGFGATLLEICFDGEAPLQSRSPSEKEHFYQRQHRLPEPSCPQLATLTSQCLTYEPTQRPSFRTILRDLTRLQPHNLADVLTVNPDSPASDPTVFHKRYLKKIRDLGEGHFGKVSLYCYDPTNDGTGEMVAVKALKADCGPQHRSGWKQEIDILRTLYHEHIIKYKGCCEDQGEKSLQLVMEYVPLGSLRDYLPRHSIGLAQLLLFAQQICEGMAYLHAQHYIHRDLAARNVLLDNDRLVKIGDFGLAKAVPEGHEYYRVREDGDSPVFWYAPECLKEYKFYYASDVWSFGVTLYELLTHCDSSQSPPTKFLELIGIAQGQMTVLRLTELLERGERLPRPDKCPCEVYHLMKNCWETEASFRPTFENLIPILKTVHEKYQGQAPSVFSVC
Protocol: as §1, §2

[5] = system: phosphorylation of STAT6; assay: Cellular p-STAT6 assay, IL-13 stimulated THP-1 cells, flow cytometry; type: cell-based; conditions: Homo sapiens, THP-1, THP-1 cells, IL-13 10 ng/ml; read-out: pSTAT6 IC50
Protocol: To detect phosphorylated STAT6 (pSTAT6), THP-1 cells were harvested by centrifugation at 250 g for 5 min and resuspended in assay medium (RPMI1640+10% FBS) to 2×10^5 cells/well. Test compounds were applied to assay plates in serial dilution from 1 μM to 0.3 nM in DMSO. THP-1 cells were incubated with serial diluted compounds for 60 min at room temperature, followed by stimulation of interleukin (IL-13, 10 ng/ml) for 30 min, fixed in Cytofix buffer (BD Biosciences), and permeabilized in 90% methanol on ice. PE anti-pSTAT6 (BD Biosciences) antibodies were stained for 60 min at room temperature before being analyzed by flow cytometry. In the assay the compounds were thus diluted and dose-response curves for inhibition of the signal determine the IC50 for the compounds.

T1 sequence (P23458 whole entry): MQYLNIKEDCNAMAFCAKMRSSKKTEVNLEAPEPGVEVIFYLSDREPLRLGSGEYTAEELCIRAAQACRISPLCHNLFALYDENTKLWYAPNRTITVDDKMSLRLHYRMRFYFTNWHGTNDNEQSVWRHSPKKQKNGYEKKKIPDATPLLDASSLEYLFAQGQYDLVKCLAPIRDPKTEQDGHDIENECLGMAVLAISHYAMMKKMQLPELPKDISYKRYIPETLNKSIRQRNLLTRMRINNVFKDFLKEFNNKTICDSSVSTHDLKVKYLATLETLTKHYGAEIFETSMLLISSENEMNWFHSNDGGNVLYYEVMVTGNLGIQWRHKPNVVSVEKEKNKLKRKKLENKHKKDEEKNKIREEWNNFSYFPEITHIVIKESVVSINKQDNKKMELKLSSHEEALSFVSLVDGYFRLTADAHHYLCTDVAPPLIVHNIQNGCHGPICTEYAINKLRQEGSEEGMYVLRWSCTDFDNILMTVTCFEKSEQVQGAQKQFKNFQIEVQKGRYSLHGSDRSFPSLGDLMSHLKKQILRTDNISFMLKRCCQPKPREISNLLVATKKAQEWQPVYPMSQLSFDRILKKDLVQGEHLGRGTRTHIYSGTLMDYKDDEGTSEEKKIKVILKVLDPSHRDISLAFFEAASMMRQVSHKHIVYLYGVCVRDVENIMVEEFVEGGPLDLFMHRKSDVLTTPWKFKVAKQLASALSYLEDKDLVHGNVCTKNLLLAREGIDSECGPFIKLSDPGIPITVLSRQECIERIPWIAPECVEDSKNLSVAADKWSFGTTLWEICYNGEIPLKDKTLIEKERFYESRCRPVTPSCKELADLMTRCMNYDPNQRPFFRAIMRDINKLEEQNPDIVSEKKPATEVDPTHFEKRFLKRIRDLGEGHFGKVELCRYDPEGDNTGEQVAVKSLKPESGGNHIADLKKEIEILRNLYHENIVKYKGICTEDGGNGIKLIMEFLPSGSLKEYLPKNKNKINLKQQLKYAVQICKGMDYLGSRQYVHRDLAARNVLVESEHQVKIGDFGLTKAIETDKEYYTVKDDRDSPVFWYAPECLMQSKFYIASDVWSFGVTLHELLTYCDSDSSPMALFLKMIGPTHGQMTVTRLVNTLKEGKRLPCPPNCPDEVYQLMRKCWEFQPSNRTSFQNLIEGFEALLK

| IC50 [1] | IC50 [2] | IC50 [3] | IC50 [4] | IC50 [5] | Compound |
| --- | --- | --- | --- | --- | --- |
| 0.23 nM | 186 nM | > 10 µM | 1400 nM | 14.9 nM | COC[C@H](C(=O)Nc1cccc2c(-c3nc(Nc4ccc5ocnc5c4)ncc3F)c[nH]c12)N1CCN(C)CC1 [Example 51, (R)-N-(3-(2-(benzo[d]oxazol-5-ylamino)-5-fluoropyrimidin-4-yl)-1H-indol-7-yl)-3-methoxy-2-(4-methylpiperazin-1-yl)propanamide] |
| 0.24 nM | 467 nM | > 10 µM | 5250 nM | 8.5 nM | COC[C@H](C(=O)Nc1cccc2c(-c3nc(Nc4ccc(-c5ncco5)nc4)ncc3F)c[nH]c12)N1CCN(C)CC1 [Example 22, (R)-N-(3-(5-fluoro-2-((6-(oxazol-2-yl)pyridin-3-yl)amino)pyrimidin-4-yl)-1H-indol-7-yl)-3-methoxy-2-(4-methylpiperazin-1-yl)propanamide] |
| 0.12 nM | 162 nM | > 10 µM | 1180 nM | 9.6 nM | COC[C@H](C(=O)Nc1cccc2c(-c3nc(Nc4cncc(O)c4)ncc3F)c[nH]c12)N1CCN(C)CC1 [Example 28, (R)-N-(3-(5-fluoro-2-((5-hydroxypyridin-3-yl)amino)pyrimidin-4-yl)-1H-indol-7-yl)-3-methoxy-2-(4-methylpiperazin-1-yl)propanainide] |
| 0.07 nM | 16 nM | 5.26 µM | 560 nM | 12.8 nM | COC[C@H](C(=O)Nc1cccc2c(-c3nc(Nc4ccc5c(c4)CCOC5=O)ncc3F)c[nH]c12)N1CCN(C)CC1 [Example 42, (R)-N-(3-(5-fluoro-2-((1-oxoisochroman-6-yl)amino)pyrimidin-4-yl)-1H-indol-7-yl)-3-methoxy-2-(4-methylpiperazin-1-yl)propanamide] |
| 0.23 nM | 316 nM | > 10 µM | 974 nM | 11.9 nM | CNC(=O)Cc1ccc(Nc2ncc(F)c(-c3c[nH]c4c(NC(=O)[C@@H](COC)N5CCN(C)CC5)cccc34)n2)cn1 [Example 39, (R)-N-(3-(5-fluoro-2-((6-(2-(methylamino)-2-oxoethyl)pyridin-3-yl)amino)pyrimidin-4-yl)-1H-indol-7-yl)-3-methoxy-2-(4-methylpiperazin-1-yl)propanamide] |
| 0.21 nM | 58 nM | > 10 µM | 634 nM | 6.2 nM | COC[C@H](C(=O)Nc1cccc2c(-c3nc(Nc4cnc(C)c(C(=O)OC)c4)ncc3F)c[nH]c12)N1CCN(C)CC1 [Example 7, methyl (R)-5-((5-fluoro-4-(7-(3-methoxy-2-(4-methylpiperazin-1-yl)propanamido)-1H-indol-3-yl)pyrimidin-2-yl)amino)-2-methylnicotinate] |
| 0.82 nM | 403 nM | > 10 µM | 2570 nM | 8.9 nM | COC[C@H](C(=O)Nc1cccc2c(-c3nc(Nc4ccc(-n5ccnc5)nc4)ncc3F)c[nH]c12)N1CCN(C)CC1 [Example 24, (R)-N-(3-(2-((6-(1H-imidazol-1-yl)pyridin-3-yl)amino)-5-fluoropyrimidin-4-yl)-1H-indol-7-yl)-3-methoxy-2-(4-methylpiperazin-1-yl)propanamide] |
| 0.2 nM | 9 nM | > 10 µM | 273 nM | 8.9 nM | COC[C@H](C(=O)Nc1cccc2c(-c3nc(Nc4cncc(CCCO)c4)ncc3F)c[nH]c12)N1CCN(C)CC1 [Example 25, (R)-N-(3-(5-fluoro-2-((5-(3-hydroxypropyl)pyridin-3-yl)amino)pyrimidin-4-yl)-1H-indol-7-yl)-3-methoxy-2-(4-methylpiperazin-1-yl)propanamide] |
| 1.52 nM | 322 nM | > 10 µM | > 10000 nM | 13.5 nM | COC[C@H](C(=O)Nc1cccc2c(-c3nc(Nc4ccc5c(CO)ncn5c4)ncc3F)c[nH]c12)N1CCN(C)CC1 [Example 46, (R)-N-(3-(5-fluoro-2-((1-(hydroxymethyl)imidazo[1,5-a]pyridin-6-yl)amino)pyrimidin-4-yl)-1H-indol-7-yl)-3-methoxy-2-(4-methylpiperazin-1-yl)propanainide] |
| 0.86 nM | 219 nM | > 10 µM | 4880 nM | 15.3 nM | COC[C@H](C(=O)Nc1cccc2c(-c3nc(Nc4ccc(OCc5ncco5)nc4)ncc3F)c[nH]c12)N1CCN(C)CC1 [Example 54, (R)-N-(3-(5-fluoro-2-((6-(oxazol-2-ylmethoxy)pyridin-3-yl)amino)pyrimidin-4-yl)-1H-indol-7-yl)-3-methoxy-2-(4-methylpiperazin-1-yl)propanamide] |
| 0.22 nM | 110 nM | > 10 µM | 1430 nM | 12.6 nM | COC[C@H](C(=O)Nc1cccc2c(-c3nc(Nc4ccc5[nH]ccc5c4)ncc3F)c[nH]c12)N1CCN(C)CC1 [Example 41, (R)-N-(3-(2-((1H-indol-5-yl)amino)-5-fluoropyrimidin-4-yl)-1H-indol-7-yl)-3-methoxy-2-(4-methylpiperazin-1-yl)propanamide] |
| 0.2 nM | 125 nM | > 10 µM | 1150 nM | 8.4 nM | COC[C@H](C(=O)Nc1cccc2c(-c3nc(Nc4cncc(C(=O)OC)c4)ncc3F)c[nH]c12)N1CCN(C)CC1 [Example 21, methyl (R)-5-((5-fluoro-4-(7-(3-methoxy-2-(4-methylpiperazin-1-yl)propanamido)-1H-indol-3-yl)pyrimidin-2-yl)amino)nicotinate] |
| 0.11 nM | 8 nM | 3.59 µM | 194 nM | 17.7 nM | COC[C@H](C(=O)Nc1cccc2c(-c3nc(Nc4cc(CO)c5cn[nH]c5c4)ncc3F)c[nH]c12)N1CCN(C)CC1 [Example 61, (R)-N-(3-(5-fluoro-2-((4-(hydroxymethyl)-1H-indazol-6-yl)amino)pyrimidin-4-yl)-1H-indol-7-yl)-3-methoxy-2-(4-methylpiperazin-1-yl)propanamide] |
| 12.8 nM | 2710 nM | > 10 µM | > 10000 nM | 15.3 nM | COC[C@H](C(=O)Nc1cccc2c(-c3nc(Nc4cccc(CCC(=O)OC)n4)ncc3F)c[nH]c12)N1CCN(C)CC1 [Example 55, methyl (R)-3-(6-((5-fluoro-4-(7-(3-methoxy-2-(4-methylpiperazin-1-yl)propanamido)-1H-indol-3-yl)pyrimidin-2-yl)amino)pyridin-2-yl)propanoate] |
| 0.13 nM | 81 nM | > 10 µM | 556 nM | 14 nM | COC[C@H](C(=O)Nc1cccc2c(-c3nc(Nc4ccc5ncsc5c4)ncc3F)c[nH]c12)N1CCN(C)CC1 [Example 47, (R)-N-(3-(2-(benzo[d]thiazol-6-ylamino)-5-fluoropyrimidin-4-yl)-1H-indol-7-yl)-3-methoxy-2-(4-methylpiperazin-1-yl)propanamide] |
